Assay results: patent US20240101546A1, “HETEROARYL-ACETYLENES, PHARMACEUTICAL COMPOSITIONS THEREOF, AND THEIR THERAPEUTIC APPLICATIONS” (Eubulus Biotherapeutics Inc., priority 2020, published 2024)
pEC50: −log10 of the molar value.

test system: hepatocellular carcinoma cell line Hub-7; assay: Cell proliferation assay, Hub-7 (CELL-TITER GLO); format: cell-based; settings: Hub-7 cells, 24 h incubation, cell viability by CELL-TITER GLO, top concentration 10 μM; read-out: EC50, Inhibition of Hub-7 Cell Proliferation
Method: The activity of a compound was determined in a cell proliferation assay using the hepatocellular carcinoma cell line Hub-7. Cells (4,000 cells per well) were seeded in a 96-well tissue culture plate. After incubated overnight, the compound was added at predetermined concentrations, starting with 10 μM and followed by 3-fold serial dilution. After the cells were incubated for 24 h, cell viability was determined using a CELL-TITER GLO® assay. The CELL-TITER GLO® reagent (50 μL) was added to each well and the luminescence was measured by a multimode microplate reader after a brief period of shaking. EC50 values were determined for the compound. The results are summarized in Table 1, wherein A represents a value no greater than 200 nM, B represents a value greater than 200 nM but no greater than 1 μM, C represents a value greater than 1 μM but no greater than 5 μM, and D represents a value greater than 5 μM.

Row | Structure (SMILES) | pEC50
1 | C#Cc1nc(C(=O)NCc2cccc(Cl)c2)c(-c2ccccc2)s1 [Compound C56, N-(3-Chlorobenzyl)-2-ethynyl-5-phenylthiazole-4-carboxamide] | 5.30 to 6.00
2 | C#Cc1nc(C(=O)NCc2cccc(-c3cn[nH]c3)c2)cs1 [Compound C58, N-(3-(1H-Pyrazol-4-yl)benzyl)-2-ethynylthiazole-4-carboxamide] | 5.30 to 6.00
3 | C#Cc1nc(C(=O)NCc2cccc(-c3cnn(C)c3)c2)cs1 [Compound C59, 2-Ethynyl-N-(3-(1-methyl-1H-pyrazol-4-yl)benzyl)thiazole-4-carboxamide] | 5.30 to 6.00
4 | C#Cc1nc(C(=O)NCc2cccc(-c3cccnc3)c2)cs1 [Compound C65, 2-Ethynyl-N-(3-(pyridin-3-yl)benzyl)thiazole-4-carboxamide] | 5.30 to 6.00
5 | C#Cc1nc(C(=O)NCc2ccc3ncsc3c2)cs1 [Compound C66, N-(Benzo[d]thiazol-6-ylmethyl)-2-ethynylthiazole-4-carboxamide] | 5.30 to 6.00
6 | C#Cc1nc(C(=O)N[C@H](C)c2cccc(Cl)c2)cs1 [Compound C67, (R)—N-(1-(3-Chlorophenyl)ethyl)-2-ethynylthiazole-4-carboxamide] | 5.30 to 6.00
7 | C#Cc1nc(C(=O)NCc2ccccc2CO)cs1 [Compound C70, 2-Ethynyl-N-(2-(hydroxymethyl)benzyl)thiazole-4-carboxamide] | 5.30 to 6.00
8 | C#Cc1nc(C(=O)NCc2ccc(CCC(=O)OC)cc2)cs1 [Compound C73, Methyl 3-(4-((2-ethynylthiazole-4-carboxamido)methyl)phenyl)propanoate] | < 5.30
9 | C#Cc1nc(C(=O)NCc2ccccc2C(=O)OC)cs1 [Compound C74, Methyl 2-((2-ethynylthiazole-4-carboxamido)methyl)benzoate] | 6.00 to 6.70
10 | C#Cc1nc(C(=O)NCCc2ccc(-c3cnn(C)c3)cc2)cs1 [Compound C75, 2-Ethynyl-N-(4-(1-methyl-1H-pyrazol-4-yl)phenethyl)thiazole-4-carboxamide] | 6.00 to 6.70
11 | C#Cc1nc(C(=O)NCCc2ccc(-c3cn[nH]c3)cc2)cs1 [Compound C76, N-(4-(1H-Pyrazol-4-yl)phenethyl)-2-ethynylthiazole-4-carboxamide] | 5.30 to 6.00
12 | C#Cc1nc(NC(=O)Cc2ccccc2)cs1 [Compound C77, N-(2-Ethynylthiazol-4-yl)-2-phenylacetamide] | 6.00 to 6.70
13 | C#Cc1nc(C(=O)NC2CCN(c3ccccc3)CC2)cs1 [Compound C78, 2-Ethynyl-N-(1-phenylpiperidin-4-yl)thiazole-4-carboxamide] | 6.00 to 6.70
14 | C#Cc1nc(C(=O)NCCc2ccc(-c3cccnc3)cc2)cs1 [Compound C79, 2-Ethynyl-N-(4-(pyridin-3-yl)phenethyl)thiazole-4-carboxamide] | 6.00 to 6.70
15 | C#Cc1nc(C(=O)NCCc2ccc(Br)cc2)cs1 [Compound C80, N-(4-Bromophenethyl)-2-ethynylthiazole-4-carboxamide] | 6.00 to 6.70
16 | C#Cc1nc(C(=O)NCCc2cccc(NS(C)(=O)=O)c2)cs1 [Compound C81, 2-Ethynyl-N-(3-(methylsulfonamido)phenethyl)thiazole-4-carboxamide] | 5.30 to 6.00
17 | C#Cc1nc(C(=O)NCCc2cccc(NC(C)=O)c2)cs1 [Compound C82, N-(3-Acetamidophenethyl)-2-ethynylthiazole-4-carboxamide] | 5.30 to 6.00
18 | C#Cc1nc(C(=O)NCc2ccc(-c3cnn(C)c3)cc2)cs1 [Compound C83, 2-Ethynyl-N-(4-(1-methyl-1H-pyrazol-4-yl)benzyl)thiazole-4-carboxamide] | 5.30 to 6.00
19 | C#Cc1nc(C(=O)NCCc2ccc(C(=O)OC)cc2)cs1 [Compound C84, Methyl 4-(2-(2-ethynylthiazole-4-carboxamido)ethyl)benzoate] | 5.30 to 6.00
20 | C#Cc1nc(C(=O)NCCc2cccc(N)c2)cs1 [Compound C85, N-(3-Aminophenethyl)-2-ethynylthiazole-4-carboxamide] | 5.30 to 6.00
21 | C#Cc1nc(C(=O)NCc2ccc3c(c2)OCCO3)cs1 [Compound C86, N-((2,3-Dihydrobenzo[b][1,4]dioxin-6-yl)methyl)-2-ethynylthiazole-4-carboxamide] | 5.30 to 6.00
22 | C#Cc1nc(C(=O)NCCc2cccc([N+](=O)[O-])c2)cs1 [Compound C87, 2-Ethynyl-N-(3-nitrophenethyl)thiazole-4-carboxamide] | 6.00 to 6.70
23 | C#Cc1nc(C(=O)NCCc2ccc(NC(C)=O)cc2)cs1 [Compound C88, N-(4-Acetamidophenethyl)-2-ethynylthiazole-4-carboxamide] | 5.30 to 6.00
24 | C#Cc1nc(C(=O)NCc2ccc(NC(C)=O)cc2)cs1 [Compound C89, N-(4-Acetamidobenzyl)-2-ethynylthiazole-4-carboxamide] | < 5.30
25 | N#Cc1nc(C(=O)NCc2ccccc2)cs1 [Compound C90, N-Benzyl-2-cyanothiazole-4-carboxamide] | < 5.30
26 | C#Cc1nc(C(=O)NCc2ccc(-c3cc[nH]n3)cc2)cs1 [Compound C91, N-(4-(1H-Pyrazol-3-yl)benzyl)-2-ethynylthiazole-4-carboxamide] | 5.30 to 6.00

Continued, values first:

Row | pEC50 | Structure (SMILES)
27 | 6.00 to 6.70 | C#Cc1nc(C(=O)NCc2ccc(-c3ccn(C)n3)cc2)cs1 [Compound C54, 2-Ethynyl-N-(4-(1-methyl-1H-pyrazol-3-yl)benzyl)thiazole-4-carboxamide]
28 | 6.00 to 6.70 | C#Cc1nc(C(=O)NCc2ccc(-c3cscn3)cc2)cs1 [Compound C55, 2-Ethynyl-N-(4-(thiazol-4-yl)benzyl)thiazole-4-carboxamide]
29 | 6.00 to 6.70 | C#Cc1nc(C(=O)NCCc2ccc(-c3cncs3)cc2)cs1 [Compound C57, 2-Ethynyl-N-(4-(thiazol-5-yl)phenethyl)thiazole-4-carboxamide]
30 | 6.00 to 6.70 | C#Cc1nc(C(=O)NCc2cccc(-c3cc[nH]n3)c2)cs1 [Compound C60, N-(3-(1H-Pyrazol-3-yl)benzyl)-2-ethynylthiazole-4-carboxamide]
31 | 6.00 to 6.70 | C#Cc1nc(C(=O)NCc2ccc(-c3cncs3)cc2)cs1 [Compound C61, 2-Ethynyl-N-(4-(thiazol-5-yl)benzyl)thiazole-4-carboxamide]
32 | 6.00 to 6.70 | C#Cc1nc(C(=O)NC2Cc3ccccc3C2)cs1 [Compound C62, N-(2,3-Dihydro-1H-inden-2-yl)-2-ethynylthiazole-4-carboxamide]
33 | ≥ 6.70 | C#Cc1nc(C(=O)NCc2ccccc2C#N)cs1 [Compound C63, N-(2-Cyanobenzyl)-2-ethynylthiazole-4-carboxamide]
34 | ≥ 6.70 | C#Cc1nc(C(=O)NCc2ccc3ccccc3c2)cs1 [Compound C64, 2-Ethynyl-N-(naphthalen-2-ylmethyl)thiazole-4-carboxamide]
35 | 6.00 to 6.70 | C#Cc1nc(C(=O)NC2(c3cccc(Cl)c3)CC2)cs1 [Compound C68, N-(1-(3-Chlorophenyl)cyclopropyl)-2-ethynylthiazole-4-carboxamide]
36 | ≥ 6.70 | C#Cc1nc(C(=O)N[C@@H](C)c2cccc(Cl)c2)cs1 [Compound C69, (S)—N-(1-(3-Chlorophenyl)ethyl)-2-ethynylthiazole-4-carboxamide]
37 | 6.00 to 6.70 | C#Cc1nc(C(=O)N[C@H]2CCc3ccccc32)cs1 [Compound C71, (S)—N-(2,3-Dihydro-1H-inden-1-yl)-2-ethynylthiazole-4-carboxamide]
38 | 6.00 to 6.70 | C#Cc1nc(C(=O)N[C@@H]2CCc3ccccc32)cs1 [Compound C72, (R)—N-(2,3-Dihydro-1H-inden-1-yl)-2-ethynylthiazole-4-carboxamide]
